Assay results reported in publication PMC4769319, “Cohesin Releases DNA through Asymmetric ATPase-Driven Ring Opening” (Molecular Cell, 2016).

Biological target: T1, Smc1/Smc3 heterodimer with Scc1-C (cohesin) (Saccharomyces cerevisiae, UniProt P32908+P47037, P32908:E1158Q, form not given)
T1 construct: N-terminal tags; Sf9 insect cells; fluorescently labelled for MST; with Sister chromatid cohesion protein 1
T1 sequence (P32908 1-1225 E1158Q): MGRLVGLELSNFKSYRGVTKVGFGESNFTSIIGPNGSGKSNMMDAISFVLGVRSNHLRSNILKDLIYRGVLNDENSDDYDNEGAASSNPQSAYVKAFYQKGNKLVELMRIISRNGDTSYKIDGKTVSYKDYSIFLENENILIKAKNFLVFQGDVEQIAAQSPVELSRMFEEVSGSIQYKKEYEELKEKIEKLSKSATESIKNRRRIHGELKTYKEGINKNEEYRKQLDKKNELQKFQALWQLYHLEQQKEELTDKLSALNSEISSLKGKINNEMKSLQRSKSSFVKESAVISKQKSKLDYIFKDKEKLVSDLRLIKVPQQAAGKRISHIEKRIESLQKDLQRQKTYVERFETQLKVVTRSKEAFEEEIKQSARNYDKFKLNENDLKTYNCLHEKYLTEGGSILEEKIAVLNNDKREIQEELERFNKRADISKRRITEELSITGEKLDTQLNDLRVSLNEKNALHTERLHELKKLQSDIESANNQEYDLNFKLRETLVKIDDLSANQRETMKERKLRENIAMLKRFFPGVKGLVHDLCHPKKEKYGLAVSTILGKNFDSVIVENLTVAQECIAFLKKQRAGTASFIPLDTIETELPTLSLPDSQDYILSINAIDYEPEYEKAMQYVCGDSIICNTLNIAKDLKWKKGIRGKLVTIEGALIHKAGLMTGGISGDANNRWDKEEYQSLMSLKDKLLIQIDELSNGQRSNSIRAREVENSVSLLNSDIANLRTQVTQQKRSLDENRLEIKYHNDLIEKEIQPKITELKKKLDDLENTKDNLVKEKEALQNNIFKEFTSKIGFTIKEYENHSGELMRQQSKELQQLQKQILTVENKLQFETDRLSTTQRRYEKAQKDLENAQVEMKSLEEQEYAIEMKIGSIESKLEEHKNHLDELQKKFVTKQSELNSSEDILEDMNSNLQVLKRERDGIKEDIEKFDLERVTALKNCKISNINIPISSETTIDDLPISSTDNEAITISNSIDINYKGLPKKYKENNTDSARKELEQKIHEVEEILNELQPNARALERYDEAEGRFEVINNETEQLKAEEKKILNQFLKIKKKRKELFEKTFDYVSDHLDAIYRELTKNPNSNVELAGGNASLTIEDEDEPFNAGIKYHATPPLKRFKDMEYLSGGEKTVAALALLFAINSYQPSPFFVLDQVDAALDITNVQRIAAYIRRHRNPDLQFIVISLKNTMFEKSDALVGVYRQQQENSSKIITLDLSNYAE
T1 sequence (P47037 1-1230): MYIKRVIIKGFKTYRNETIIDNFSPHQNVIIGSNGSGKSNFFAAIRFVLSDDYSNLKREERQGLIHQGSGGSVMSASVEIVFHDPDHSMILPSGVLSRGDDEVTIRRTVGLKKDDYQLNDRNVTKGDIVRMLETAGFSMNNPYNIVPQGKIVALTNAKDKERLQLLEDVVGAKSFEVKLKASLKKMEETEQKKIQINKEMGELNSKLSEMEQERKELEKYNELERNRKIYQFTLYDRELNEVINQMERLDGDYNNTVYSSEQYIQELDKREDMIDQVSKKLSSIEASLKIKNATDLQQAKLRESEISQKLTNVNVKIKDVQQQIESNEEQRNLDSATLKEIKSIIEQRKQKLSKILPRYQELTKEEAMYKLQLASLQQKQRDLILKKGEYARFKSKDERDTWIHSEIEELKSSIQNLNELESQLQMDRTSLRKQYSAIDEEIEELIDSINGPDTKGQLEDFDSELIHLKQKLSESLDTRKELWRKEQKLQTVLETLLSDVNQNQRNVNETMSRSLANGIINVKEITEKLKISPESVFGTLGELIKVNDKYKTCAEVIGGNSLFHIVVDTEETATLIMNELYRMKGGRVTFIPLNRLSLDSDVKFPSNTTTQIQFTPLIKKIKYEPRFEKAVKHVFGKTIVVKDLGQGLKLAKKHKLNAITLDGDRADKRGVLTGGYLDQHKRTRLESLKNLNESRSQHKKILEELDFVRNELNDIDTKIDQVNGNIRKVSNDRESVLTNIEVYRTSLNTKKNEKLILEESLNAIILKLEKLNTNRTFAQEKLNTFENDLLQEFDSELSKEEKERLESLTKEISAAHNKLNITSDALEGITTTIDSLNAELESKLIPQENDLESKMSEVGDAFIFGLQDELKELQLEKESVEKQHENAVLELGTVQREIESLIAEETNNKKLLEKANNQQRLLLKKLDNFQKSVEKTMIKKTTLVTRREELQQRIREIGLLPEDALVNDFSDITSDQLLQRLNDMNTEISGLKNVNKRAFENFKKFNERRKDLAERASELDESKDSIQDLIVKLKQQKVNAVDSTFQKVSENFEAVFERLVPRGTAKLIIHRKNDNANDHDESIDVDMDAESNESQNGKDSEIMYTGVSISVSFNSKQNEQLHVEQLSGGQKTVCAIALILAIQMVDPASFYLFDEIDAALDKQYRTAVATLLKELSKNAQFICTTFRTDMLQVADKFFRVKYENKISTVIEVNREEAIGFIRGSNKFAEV
T1 sequence (Q12158 1-566 partner): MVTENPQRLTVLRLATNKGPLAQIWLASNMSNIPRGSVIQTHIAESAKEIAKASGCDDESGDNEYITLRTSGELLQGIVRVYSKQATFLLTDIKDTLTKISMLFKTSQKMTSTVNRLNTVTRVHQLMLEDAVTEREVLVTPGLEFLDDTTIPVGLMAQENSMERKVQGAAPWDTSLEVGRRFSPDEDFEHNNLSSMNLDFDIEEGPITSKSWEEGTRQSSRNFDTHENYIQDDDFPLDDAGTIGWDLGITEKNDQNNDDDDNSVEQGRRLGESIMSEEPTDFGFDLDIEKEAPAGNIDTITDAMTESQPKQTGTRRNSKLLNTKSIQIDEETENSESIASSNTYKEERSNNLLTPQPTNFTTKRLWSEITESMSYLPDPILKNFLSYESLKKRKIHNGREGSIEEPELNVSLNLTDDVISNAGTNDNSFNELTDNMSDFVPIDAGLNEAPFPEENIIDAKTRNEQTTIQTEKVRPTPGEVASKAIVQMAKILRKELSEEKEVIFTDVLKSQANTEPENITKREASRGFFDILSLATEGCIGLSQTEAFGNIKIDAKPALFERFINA
Test: microscale thermophoresis
Type: binding
Conditions: fluorescently labelled protein; Smc1 co-purified with Scc1-C, plus Smc3; read-out: affinity
Excerpt: microscale thermophoresis on Smc1/Smc3 heterodimer with Scc1-C (cohesin) | Smc1 L1129V, D1164E and E1158Q mutants all had wild-type-like affinity to both ATP and ADP | wild-type and mutant cohesin complexes appear to have similar affinities to ADP

Row | SMILES | Kd [µM]
1 | Nc1ncnc2c1ncn2[C@@H]1O[C@H](COP(=O)(O)OP(=O)(O)O)[C@@H](O)[C@H]1O [ADP] | > 1000
2 | Nc1ncnc2c1ncn2[C@@H]1O[C@H](COP(=O)(O)OP(=O)(O)OP(=O)(O)O)[C@@H](O)[C@H]1O [ATP] | 567 ± 289
